Data on eleven compounds can be found in US8845879B2 (priority 2010, dated 2014).

For assay [1], the system named is mitochondria isolated from Saccharomyces cerevisiae. It counts as biochemical.
For assay [2], the system named is immobilized mouse liver mitochondria. It counts as biochemical.
Where [3] appears, read: before vs after overnight soak at 4° C. in pesticide solution, average ± standard deviation.

Read-outs that look alike come from different tables or passages of the source.

As to `O=C(O)COc1ccc(Cl)cc1Cl` [2,4-D, 2,4-Dichlorophenoxyacetic acid], in assay [1], the “change in peak area (ΔAh)” value is listed as −8.237E−05 ± 1.713E−05 C and the “change in peak height (Δip)” value is −1.617E−06 ± 5.286E−07 A. As for `CCNc1nc(Cl)nc(NC(C)C)n1` [Atrazine], in assay [1], the “change in peak area (ΔAh)” value is given as −6.809E−05 ± 1.708E−05 C and the “change in peak height (Δip)” value is given as −8.290E−07 ± 2.197E−07 A. As for `COc1ccc2nc([S@@+]([O-])Cc3ncc(C)c(OC)c3C)[nH]c2c1` [Esomeprazole], in assay [2], the attenuated current is recorded as 16.8±6.4%, the “attenuation (decrease) in current” value is 1.7±10.3%, the “attenuation in metabolic energy conversion” value came to 19.9±7.6% and the “attenuation in metabolic energy production” value amounted to 58.8±11.1%. Consider `C[n+]1ccc(-c2cc[n+](C)cc2)cc1` [Paraquat], for which, in assay [1], the “change in peak area (ΔAh)” value was −3.690E−05 ± 1.109E−05 C and the “change in peak height (Δip)” value was −8.582E−07 ± 1.870E−07 A. As to `CCOP(=S)(OCC)Oc1ccc([N+](=O)[O-])cc1` [Parathion], in assay [1] (setting [3]), the “change in peak area (ΔAh)” value was −2.721E−05 ± 9.349E−06 C and the “change in peak height (Δip)” value is −4.491E−07 ± 2.512E−07 A. Regarding `CC1(C)C(C=C(Cl)Cl)C1C(=O)OCc1cccc(Oc2ccccc2)c1` (stereo not drawn) [Permethrin], in assay [1], the “change in peak area (ΔAh)” value is recorded as −6.597E−05 ± 1.238E−05 C and the “change in peak height (Δip)” value is listed as −1.015E−06 ± 2.065E−07 A.

Regarding `O=C(O)c1ccccc1O` [Salicylic acid], in assay [2], the “change in current after treatment (in words)” value is on record as “not statistically significant” and the “higher metabolic energy flux than untreated mitochondria” value stood at 18.6±1.5%. On to `CC1=NS(=O)(=O)c2cc(Cl)ccc2N1` [diazoxide], for which the “inhibition of mitochondrial function (in words)” value (“inhibition” below) in assay [2] is “partial inhibition”.

Consider `CC[C@H]1/C=C/C=C/C[C@@H](C)[C@H](O)[C@@](C)(O)C(=O)[C@@H](C)[C@H](O)[C@@H](C)C(=O)[C@@H](C)[C@H](O)[C@@H](C)/C=C/C(=O)O[C@@H]2[C@H](C)[C@H](CC1)O[C@]1(CC[C@H](C)[C@H](C[C@@H](C)O)O1)[C@H]2C` [oligomycin], for which, in assay [2], the “attenuation (decrease) in current” value is 36.5±3.7% and the “attenuation in metabolic energy conversion” value is on record as 60.9±1.0%. Regarding `C=C(C)[C@H]1Cc2c(ccc3c2O[C@@H]2COc4cc(OC)c(OC)cc4[C@@H]2C3=O)O1` [rotenone], the “inhibition” value in assay [2] was “strong inhibitory response”. For the compound antimycin, in assay [2], the “inhibition” value is recorded as “strong inhibitory response”.
